IC50 data for 28 compounds are collected here from US12590083B2, “Inhibitors of spinster homolog 2 (SPNS2) for use in therapy” (University of Virginia Patent Foundation, priority 2019, dated 2026).

pIC50: −log10 of the molar value. Counter-ions that a name gives are not always drawn.

This experiment concerns the target T1, human SPNS2 (Homo sapiens, UniProt Q8IVW8).
T1 construct: expressed in transfected cells; host or cells: Saccharomyces cerevisiae strain with forced expression of a mammalian SphK and human SPNS2
T1 sequence (Q8IVW8 1-549): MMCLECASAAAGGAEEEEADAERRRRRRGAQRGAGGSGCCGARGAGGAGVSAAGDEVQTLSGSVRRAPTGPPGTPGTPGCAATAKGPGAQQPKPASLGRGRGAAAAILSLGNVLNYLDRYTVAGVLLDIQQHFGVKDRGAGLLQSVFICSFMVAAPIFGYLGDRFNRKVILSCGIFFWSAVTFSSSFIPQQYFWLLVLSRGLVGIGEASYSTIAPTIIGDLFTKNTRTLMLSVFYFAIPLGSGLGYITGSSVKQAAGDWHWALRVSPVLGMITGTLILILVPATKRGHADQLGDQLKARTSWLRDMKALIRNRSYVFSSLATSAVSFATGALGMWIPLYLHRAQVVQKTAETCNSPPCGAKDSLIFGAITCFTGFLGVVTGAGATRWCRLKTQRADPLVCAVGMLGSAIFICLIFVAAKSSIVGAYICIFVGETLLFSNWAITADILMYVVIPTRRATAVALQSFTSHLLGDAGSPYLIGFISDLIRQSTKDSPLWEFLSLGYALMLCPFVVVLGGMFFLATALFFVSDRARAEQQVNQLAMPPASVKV
Kind of experiment: S1P transporter assay: growth of S. cerevisiae strain with forced expression of a mammalian SphK and human SPNS2. It is filed as cell-based. Conditions: in vitro inhibition of SPNS2; growth of S. cerevisiae strain expressing mammalian SphK and human SPNS2; compounds as their pharmaceutical salts. The text has this:
Transporter assays are vectorial and, therefore, require measurement of the transported analyte in different compartments. The assay of S1P transporters is problematic because S1P is exported, but not imported, by SPNS2, which obviates measuring uptake of mass- or radio-labeled S1P into transporter-expressing cells.
To assay for SPNS2 inhibitor hits, we took advantage of the growth inhibitory effects of excessive levels of phosphorylated Long Chain Base (phospho-LCB) levels on the budding yeast, S. cerevisiae (Kharel Y, et al. Saccharomyces cerevisiae as a platform for assessing sphingolipid lipid kinase inhibitors. PLoS One 13, e0192179 (2018) PMC5908134). Yeast lack the desaturase that converts dihydroceramide to ceramide and, therefore, have neither sphingosine nor S1P. Rather, yeast have the reduced form, dihydrosphingosine, and the 4-hydroxyl analog, phytosphingosine and their respective phosphates. Like all eukaryotes, the yeast synthesizes (via LCB kinases (SphKs)) and degrades (via phospho-LCB lyase and phosphatase) phospho-LCBs, (dhS1P, phytoS1P). Yeast lack phospho-LCB transporters such as SPNS2, which are found only in vertebrates. To assess inhibition of SPNS2 in vitro, we used a strain of S. cerevisiae wherein expression of a mammalian SphK and human SPNS2 were forced. SPNS2 inhibitors decrease the growth of this strain. Table 2 below presents in vitro inhibition data against SPNS2 for exemplary compounds, presented here as their pharmaceutical salts, of the disclosure (A≤2 μM, B>2 μM).
One may read the pIC50 as −log10 of the IC50, conventionally taken in molar units. For the compound `CCCCCCCCNc1ccc(-c2noc([C@@H]3CCNC3)n2)cn1` [Compound 13b, (R)—N-octyl-5-(5-(pyrrolidin-3-yl)-1,2,4-oxadiazol-3-yl)pyridin-2-amine hydrochloride], the pIC50 was less than 5.70.
In the case of `CCCCCCCCCCc1ccc(-c2noc([C@@H]3CCCNC3)n2)cc1C(F)(F)F` [Compound 28e, (R)-3-(4-decyl-3-(trifluoromethyl)phenyl)-5-(piperidin-3-yl)-1,2,4-oxadiazole hydrochloride], the pIC50 is less than 5.70.
For the compound `C/C(=N\OCc1ccc(-c2ccccc2)cc1)c1ccc(-c2noc([C@@H]3CCN(C(=N)N)C3)n2)cc1` [Compound 40d, (R)-3-(3-(4-(1-(([1,1′-biphenyl]-4-ylmethoxy)imino)ethyl)phenyl)-1,2,4-oxadiazol-5-yl)pyrrolidine-1-carboximidamide hydrochloride], the pIC50 was not below 5.70.
The figure for `CCCCCCCOc1ccc2cc(-c3noc([C@@H]4CCNC4)n3)ccc2c1` [Compound 5aa, (R)-3-(6-(heptyloxy)naphthalen-2-yl)-5-(pyrrolidin-3-yl)-1,2,4-oxadiazole hydrochloride] is not below 5.70.
Take `CCCCCCCCCCCc1ccc(-c2noc(C3CNC3)n2)cc1` [Compound 5a, 5-(azetidin-3-yl)-3-(4-undecylphenyl)-1,2,4-oxadiazole 2,2,2-trifluoroacetate]: the pIC50 is less than 5.70.
The figure for `CCCCCCCCCCc1ccc(Nc2ccc(-c3noc([C@@H]4CCN(C(=N)N)C4)n3)cn2)cc1` [Compound 15h, (R)-3-(3-(6-((4-decylphenyl)amino)pyridin-3-yl)-1,2,4-oxadiazol-5-yl)pyrrolidine-1-carboximidamide hydrochloride] is not below 5.70; for `N=C(N)N1CCC[C@@H](c2nc(-c3ccc(OCCCc4ccccc4)c(C(F)(F)F)c3)no2)C1` [Compound 23j, (R)-3-(3-(4-(3-phenylpropoxy)-3-(trifluoromethyl)phenyl)-1,2,4-oxadiazol-5-yl)piperidine-1-carboximidamide hydrochloride] it is less than 5.70.
As for `N=C(N)N1CC(c2nc(-c3ccc(OCCCc4ccccc4)cc3)no2)C1` [Compound 15j, 3-(3-(4-(3-phenylpropoxy)phenyl)-1,2,4-oxadiazol-5-yl)azetidine-1-carboximidamide hydrochloride], the figure is less than 5.70; as for `C/C(=N\OCCCCc1ccccc1)c1ccc(-c2noc([C@@H]3CCN(C(=N)N)C3)n2)cc1` [Compound 40a, (R)-3-(3-(4-(1-((4-phenylbutoxy)imino)ethyl)phenyl)-1,2,4-oxadiazol-5-yl)pyrrolidine-1-carboximidamide hydrochloride], not below 5.70; as for `CCCCCCCOc1ccc(-c2noc([C@@H]3CCCNC3)n2)cc1C(F)(F)F` [Compound 21c, (R)-3-(4-(heptyloxy)-3-(trifluoromethyl)phenyl)-5-(piperidin-3-yl)-1,2,4-oxadiazole hydrochloride], less than 5.70.
Turning to `CCCCCCCCCCc1ccc(-c2noc([C@H]3CCN(C(=N)N)C3)n2)cc1` [Compound 7e, (S)-amino(3-(3-(4-decylphenyl)-1,2,4-oxadiazol-5-yl)pyrrolidin-1-yl)methaniminium chloride], the pIC50 is less than 5.70.
As for `CCCCCCCCCCc1ccc(-c2noc([C@@H]3CCN(C(=N)N)C3)n2)cc1` [Compound 7g, (R)-amino(3-(3-(4-decylphenyl)-1,2,4-oxadiazol-5-yl)pyrrolidin-1-yl)methaniminium chloride], the figure is less than 5.70; as for `CCCCCCCCCc1ccc(-c2noc([C@@H]3CCCN(C(=N)N)C3)n2)cc1C(F)(F)F` [Compound 30d, (R)-3-(3-(4-nonyl-3-(trifluoromethyl)phenyl)-1,2,4-oxadiazol-5-yl)piperidine-1-carboximidamide hydrochloride], not below 5.70; as for `CCCCCCCCCCc1ccc(-c2noc(C3CN(C(=N)N)C3)n2)cc1` [Compound 7b, 3-(3-(4-decylphenyl)-1,2,4-oxadiazol-5-yl)azetidine-1-carboximidamide hydrochloride], not below 5.70.
The figure for `C/C(=N\OCc1ccc2c(c1)C(C)(C)CCC2(C)C)c1ccc(-c2noc([C@@H]3CCNC3)n2)cc1` [Compound 38h, (R)-1-(4-(5-(pyrrolidin-3-yl)-1,2,4-oxadiazol-3-yl)phenyl)ethan-1-one O-((5,5,8,8-tetramethyl-5,6,7,8-tetrahydronaphthalen-2-yl)methyl) oxime hydrochloride] is less than 5.70.
As for `C/C(=N\OCc1cccc(-c2ccccc2)c1)c1ccc(-c2noc([C@@H]3CCN(C(=N)N)C3)n2)cc1` [Compound 40e, (R)-3-(3-(4-(1-(([1,1′-biphenyl]-3-ylmethoxy)imino)ethyl)phenyl)-1,2,4-oxadiazol-5-yl)pyrrolidine-1-carboximidamide hydrochloride], the figure is not below 5.70; as for `CCCCCCCCCCCc1ccc(-c2noc([C@@H]3CCCN(C(=N)N)C3)n2)cc1C(F)(F)F` [Compound 30f, (R)-3-(3-(3-(trifluoromethyl)-4-undecylphenyl)-1,2,4-oxadiazol-5-yl)piperidine-1-carboximidamide hydrochloride], less than 5.70.
Consider `N=C(N)N1CC[C@@H](c2nc(-c3ccc(N4CCOCC4)nc3)no2)C1` [Compound 15d, (R)-3-(3-(6-morpholinopyridin-3-yl)-1,2,4-oxadiazol-5-yl)pyrrolidine-1-carboximidamide hydrochloride], for which the pIC50 was less than 5.70.
`CCCCCCCCCCc1ccc(-c2noc([C@@H]3CCCNC3)n2)cc1` [Compound 5h, (R)-3-(3-(4-decylphenyl)-1,2,4-oxadiazol-5-yl)piperidin-1-ium 2,2,2-trifluoroacetate]: the pIC50 was less than 5.70.
As for `CCCCCCCCCCc1ccc(-c2noc(C3CN(C(=N)N)C3)n2)cc1C(F)(F)F` [Compound 30b, 3-(3-(4-decyl-3-(trifluoromethyl)phenyl)-1,2,4-oxadiazol-5-yl)azetidine-1-carboximidamide hydrochloride], the pIC50 is not below 5.70.
As for `CCCCCCCCCOc1ccc(-c2noc([C@@H]3CCCN(C(=N)N)C3)n2)cc1C(F)(F)F` [Compound 23e, (R)-3-(3-(4-(nonyloxy)-3-(trifluoromethyl)phenyl)-1,2,4-oxadiazol-5-yl)piperidine-1-carboximidamide hydrochloride], the figure is not below 5.70.
Regarding `CCCCCCCCCOc1ccc(-c2noc([C@@H]3CCCNC3)n2)cc1C(F)(F)F` [Compound 12e], the pIC50 is not below 5.70.
As for `CCCCCCCCCO/N=C(\C)c1ccc(-c2noc([C@@H]3CCN(C(=N)N)C3)n2)cc1` [Compound 40j, (R)-3-(3-(4-(1-((nonyloxy)imino)ethyl)phenyl)-1,2,4-oxadiazol-5-yl)pyrrolidine-1-carboximidamide hydrochloride], the figure is less than 5.70.
The figure for `CCCCCCCCCCCc1ccc(-c2noc([C@@H]3CCCN(C(=N)N)C3)n2)cc1` [Compound 7ya, (R)-3-(3-(4-undecylphenyl)-1,2,4-oxadiazol-5-yl)piperidine-1-carboximidamide hydrochloride] is not below 5.70; for `CCCCCCCCCOc1ccc(-c2noc(C3CN(C(=N)N)C3)n2)cc1C(F)(F)F` [Compound 23b, 3-(3-(4-(nonyloxy)-3-(trifluoromethyl)phenyl)-1,2,4-oxadiazol-5-yl)azetidine-1-carboximidamide hydrochloride] it is not below 5.70; for `CCCCCCCCCCOc1ccc(-c2noc([C@@H]3CCCN(C(=N)N)C3)n2)cc1C(F)(F)F` [Compound 23f, (R)-3-(3-(4-(decyloxy)-3-(trifluoromethyl)phenyl)-1,2,4-oxadiazol-5-yl)piperidine-1-carboximidamide hydrochloride] it is not below 5.70.
`CCCCCCCO/N=C(\C)c1ccc(-c2noc([C@@H]3CCN(C(=N)N)C3)n2)cc1` [Compound 40i, (R)-3-(3-(4-(1-((heptyloxy)imino)ethyl)phenyl)-1,2,4-oxadiazol-5-yl)pyrrolidine-1-carboximidamide hydrochloride]: the pIC50 is not below 5.70.
As to `c1cc(N2CCCCC2)ncc1-c1noc([C@@H]2CCNC2)n1` [Compound 13a, (R)-3-(6-(piperidin-1-yl)pyridin-3-yl)-5-(pyrrolidin-3-yl)-1,2,4-oxadiazole hydrochloride], the pIC50 was less than 5.70.
